Source: US20210269434A1, “TRICYCLIC COMPOUNDS AS INHIBITORS OF KRAS” (Incyte Corporation, priority 2020, published 2021)

Molecular target: KRAS G12D (Homo sapiens, UniProt P01116, G12D)
Experiment: GDP-GTP exchange assay (KRAS_G12D exchange)
Type: biochemical
Conditions: bodipy loaded KRAS G12D 2.5 nM; 4 hours incubation after GppNHp-SOS1; read-out: G12D_exchange
Procedure: Example A. GDP-GTP Exchange Assay
The inhibitor potency of the exemplified compounds was determined in a fluorescence based guanine nucleotide exchange assay, which measures the exchange of bodipy-GDP (fluorescently labeled GDP) for GppNHp (Non-hydrolyzable GTP analog) to generate the active state of KRAS in the presence of SOS1 (guanine nucleotide exchange factor). Inhibitors were serially diluted in DMSO and a volume of 0.1 μL was transferred to the wells of a black low volume 384-well plate. 5 μL/well volume of bodipy-loaded KRAS G12C diluted to 5 nM in assay buffer (25 mM Hepes pH 7.5, 50 mM NaCl, 10 mM MgCl2 and 0.01% Brij-35) was added to the plate and pre-incubated with inhibitor for 2 hours at ambient temperature. Appropriate controls (enzyme with no inhibitor or with a G12C inhibitor (AMG-510)) were included on the plate. The exchange was initiated by the addition of a 5 μL/well volume containing 1 mM GppNHp and 300 nM SOS1 in assay buffer. The 10 μL/well reaction concentration of the bodipy-loaded KRAS G12C, GppNHp, and SOS1 were 2.5 nM, 500 uM, and 150 nM, respectively. The reaction plates were incubated at ambient temperature for 2 hours, a time estimated for complete GDP-GTP exchange in the absence of inhibitor. For the KRAS G12D and G12V mutants, similar guanine nucleotide exchange assays were used with 2.5 nM as final concentration for the bodipy loaded KRAS proteins and with 4 hours and 3 hours incubation after adding GppNHp-SOS1 mixture for G12D and G12V respectively. A cyclic peptide described to selectively bind G12D mutant (Sakamoto et al., BBRC 484.3 (2017), 605-611) or internal compounds with confirmed binding were used as positive controls in the assay plates. Fluorescence intensities were measured on a PheraStar plate reader instrument (BMG Labtech) with excitation at 485 nm and emission at 520 nm.
Either GraphPad prism or XLfit was used to analyze the data. The IC50 values were derived by fitting the data to a four parameter logistic equation producing a sigmoidal dose-response curve with a variable Hill coefficient. Prism equation: Y=Bottom+(Top−Bottom)/(1+10^((Log lC50−X)*Hill slope)); XLfit equation: Y=(A+((B−A)/(1+((X/C)^D)))) where X is the logarithm of inhibitor concentration and Y is the response.

Sequence of KRAS G12D (P01116 1-188 isoform P01116-2 G12D): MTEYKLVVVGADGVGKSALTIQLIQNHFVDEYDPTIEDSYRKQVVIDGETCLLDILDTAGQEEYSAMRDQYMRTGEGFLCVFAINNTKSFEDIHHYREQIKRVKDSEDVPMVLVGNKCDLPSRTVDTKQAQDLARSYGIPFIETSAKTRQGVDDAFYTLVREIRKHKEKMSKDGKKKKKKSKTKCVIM

IC50 | Compound
5000 to 10000 nM | CN(C)C1CN(c2nc3c(F)c(-c4cc(O)cc5ccccc45)c(-c4cn[nH]c4)cc3c3c2ncn3[C@H]2[C@H]3CN[C@@H]2C3)C1 (single isomer, unassigned) [Example 25a, 4-(1-((endo)-2-azabicyclo[2.1.1]hexan-5-yl)-4-(3-(dimethylamino)azetidin-1-yl)-6-fluoro-8-(1H-pyrazol-4-yl)-1H-imidazo[4,5-c]quinolin-7-yl)naphthalen-2-ol]
≤ 100 nM | CN(C)C(=O)CCc1nc2c(N3CC(N(C)C)C3)nc3c(F)c(-c4cccc5ccc(F)cc45)c(CCC#N)cc3c2n1C1C2CNC1C2 (single isomer, unassigned) [Example 291b, 3-(1-((endo)-2-azabicyclo[2.1.1]hexan-5-yl)-8-(2-cyanoethyl)-4-(3-(dimethylamino)azetidin-1-yl)-6-fluoro-7-(7-fluoronaphthalen-1-yl)-1H-imidazo[4,5-c]quinolin-2-yl)-N,N-dimethylpropanamide]
1000 to 5000 nM | Cc1ccc2cc(O)cc(-c3c(Cl)cc4c(nc(N5CC(N(C)C)C5)c5ncn([C@H]6[C@H]7CN[C@@H]6C7)c54)c3F)c2c1 [Example 24, 4-(1-((endo)-2-azabicyclo[2.1.1]hexan-5-yl)-8-chloro-4-(3-(dimethylamino)-azetidin-1-yl)-6-fluoro-1H-imidazo[4,5-c]quinolin-7-yl)-6-methylnaphthalen-2-ol]
100 to 1000 nM | Cc1cc2c(nc(N3CC(N(C)C)C3)c3ncn([C@H]4[C@H]5CN[C@@H]4C5)c32)c(F)c1-c1cc(O)cc2ccccc12 (single isomer, unassigned) [Example 34a, 4-(1-((endo)-2-azabicyclo[2.1.1]hexan-5-yl)-4-(3-(dimethyl-amino)azetidin-1-yl)-6-fluoro-8-methyl-1H-imidazo[4,5-c]quinolin-7-yl)naphthalen-2-ol]
1000 to 5000 nM | CN(C)C1CN(c2nc3c(F)c(-c4cc(O)cc5ccccc45)c(Cl)cc3c3c2nc(CC2CCNCC2)n3[C@H]2[C@H]3CN[C@@H]2C3)C1 (relative stereo) [Example 77, 4-(1-((endo)-2-azabicyclo[2.1.1]hexan-5-yl)-8-chloro-4-(3-(dimethylamino)azetidin-1-yl)-6-fluoro-2-(piperidin-4-ylmethyl)-1H-imidazo[4,5-c]quinolin-7-yl)naphthalen-2-ol]
≤ 100 nM | CN(C)C1CN(c2nc3c(F)c(-c4cc(O)cc5ccccc45)c(CCC#N)cc3c3c2nc(CN2CCOCC2=O)n3C2C3CNC2C3)C1 (single isomer, unassigned) [Example 300a, 3-(1-((endo)-2-azabicyclo[2.1.1]hexan-5-yl)-4-(3-(dimethylamino)azetidin-1-yl)-6-fluoro-7-(3-hydroxynaphthalen-1-yl)-2-((3-oxomorpholino)methyl)-1H-imidazo[4,5-c]quinolin-8-yl)propanenitrile]
≤ 100 nM | CCc1nc2c(N3CC(N(C)C)C3)nc3c(F)c(-c4cc(O)cc5ccc(F)cc45)c(CCC#N)cc3c2n1C1C2CNC1C2 (single isomer, unassigned) [Example 292b, 3-(1-((endo)-2-azabicyclo[2.1.1]hexan-5-yl)-4-(3-(dimethylamino)azetidin-1-yl)-2-ethyl-6-fluoro-7-(7-fluoro-3-hydroxynaphthalen-1-yl)-1H-imidazo[4,5-c]quinolin-8-yl)propanenitrile]
100 to 1000 nM | CN(C)C1CN(c2nc3c(F)c(-c4cc(O)cc5ccccc45)c(Cl)cc3c3c2nc(C2CCS(=O)(=O)CC2)n3[C@H]2[C@H]3CN[C@@H]2C3)C1 (relative stereo) [Example 79, 4-(1-((endo)-2-azabicyclo[2.1.1]hexan-5-yl)-8-chloro-4-(3-(dimethylamino)azetidin-1-yl)-6-fluoro-7-(3-hydroxynaphthalen-1-yl)-1H-imidazo[4,5-c]quinolin-2-yl)tetrahydro-2H-thiopyran 1,1-dioxide]
